Reference: ChEMBL document CHEMBL1201862, “PubChem BioAssay data set” (2004)
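Briefly, cells in 96-well plates were exposed to five compound concentrations for 48 h, and endpoints were estimated by linear interpolation. GI50: concentration for 50% inhibition of growth.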 Active and inactive are the calls of the source. No stated cut-off is given here; in the data, active = GI50 up to about 1.1 µM and inactive = higher.

Columns and labels:
Experiment in all cases: NCI tumour cell line growth inhibition, 48 h
786-0 = system: 786-0
A498 = system: A498
A549 = system: A549
ACHN = system: ACHN
CAKI-1 = system: CAKI-1
CCRF-CEM = system: CCRF-CEM
COLO 205 = system: COLO 205
DLD-1 = system: DLD-1
DMS-114 = system: DMS-114
DMS-273 = system: DMS-273
EKVX = system: EKVX
HCT-116 = system: HCT-116
HCT-15 = system: HCT-15
HL-60 = system: HL-60
HOP-18 = system: HOP-18
HOP-62 = system: HOP-62
HOP-92 = system: HOP-92
HT-29 = system: HT-29
IGROV-1 = system: IGROV-1
K562 = system: K562
KM-20L2 = system: KM-20L2
KM12 = system: KM12
LOX IMVI = system: LOX IMVI
LXFL 529 = system: LXFL 529
M14 = system: M14
M19-MEL = system: M19-MEL
MOLT-4 = system: MOLT-4
Malme-3M = system: Malme-3M
NCI-H226 = system: NCI-H226
NCI-H23 = system: NCI-H23
NCI-H460 = system: NCI-H460
NCI-H522 = system: NCI-H522
OVCAR-3 = system: OVCAR-3
OVCAR-4 = system: OVCAR-4
OVCAR-5 = system: OVCAR-5
OVCAR-8 = system: OVCAR-8
RPMI-8226 = system: RPMI-8226
RXF 393 = system: RXF 393
RXF 631 = system: RXF 631
SF-268 = system: SF-268
SF-295 = system: SF-295
SF-539 = system: SF-539
SK-MEL-28 = system: SK-MEL-28
SK-MEL-2 = system: SK-MEL-2
SK-MEL-5 = system: SK-MEL-5
SK-OV-3 = system: SK-OV-3
SN12C = system: SN12C
SNB-19 = system: SNB-19
SNB-75 = system: SNB-75
SNB-78 = system: SNB-78
SW-620 = system: SW-620
TK-10 = system: TK-10
U-251 = system: U-251
UACC-257 = system: UACC-257
UACC-62 = system: UACC-62
UO-31 = system: UO-31
XF498 = system: XF498
HCC 2998 = system: HCC 2998
SR = system: SR

Measured: GI50

O=c1[nH]cc(COCC(O)CO)c(=O)[nH]1 (stereo not given)
> 100 µM: HCT-15
inactive: 786-0 > 100 µM | A498 > 100 µM | A549 > 100 µM | ACHN > 100 µM | CAKI-1 > 100 µM | CCRF-CEM > 100 µM | COLO 205 > 100 µM | DLD-1 > 100 µM | DMS-114 > 100 µM | DMS-273 > 100 µM | EKVX > 100 µM | HCT-116 > 100 µM | HL-60 > 100 µM | HOP-18 > 100 µM | HOP-62 > 100 µM | HOP-92 > 100 µM | HT-29 > 100 µM | IGROV-1 > 100 µM | K562 > 100 µM | KM-20L2 > 100 µM | KM12 > 100 µM | LOX IMVI > 100 µM | LXFL 529 > 100 µM | M14 > 100 µM | M19-MEL > 100 µM | MOLT-4 > 100 µM | Malme-3M > 100 µM | NCI-H226 > 100 µM | NCI-H23 > 100 µM | NCI-H460 > 100 µM | NCI-H522 > 100 µM | OVCAR-3 > 100 µM | OVCAR-4 > 100 µM | OVCAR-5 > 100 µM | OVCAR-8 > 100 µM | RPMI-8226 > 100 µM | RXF 393 > 100 µM | RXF 631 > 100 µM | SF-268 > 100 µM | SF-295 > 100 µM | SF-539 > 100 µM | SK-MEL-28 > 100 µM | SK-MEL-2 > 100 µM | SK-MEL-5 > 100 µM | SK-OV-3 > 100 µM | SN12C > 100 µM | SNB-19 > 100 µM | SNB-75 > 100 µM | SNB-78 > 100 µM | SW-620 > 100 µM | TK-10 > 100 µM | U-251 > 100 µM | UACC-257 > 100 µM | UACC-62 > 100 µM | UO-31 > 100 µM | XF498 > 100 µM

CC1=NN(C(=O)Nc2ccccc2)C(=O)C2CCC(=O)N12 (stereo not given)
inactive: 786-0 > 100 µM | A498 > 100 µM | A549 > 100 µM | ACHN > 100 µM | CAKI-1 > 100 µM | CCRF-CEM > 100 µM | COLO 205 > 100 µM | DLD-1 > 100 µM | DMS-114 > 100 µM | DMS-273 > 100 µM | EKVX > 100 µM | HCC 2998 > 100 µM | HCT-116 > 100 µM | HL-60 > 100 µM | HOP-62 > 100 µM | HOP-92 > 100 µM | IGROV-1 > 100 µM | K562 > 100 µM | KM-20L2 > 100 µM | KM12 > 100 µM | LOX IMVI > 100 µM | LXFL 529 > 100 µM | M14 > 100 µM | M19-MEL > 100 µM | MOLT-4 > 100 µM | NCI-H23 > 100 µM | NCI-H460 > 100 µM | OVCAR-3 > 100 µM | OVCAR-4 > 100 µM | OVCAR-8 > 100 µM | RPMI-8226 > 100 µM | RXF 393 > 100 µM | RXF 631 > 100 µM | SF-268 > 100 µM | SF-295 > 100 µM | SF-539 > 100 µM | SK-MEL-28 > 100 µM | SK-MEL-2 > 100 µM | SK-MEL-5 > 100 µM | SK-OV-3 > 100 µM | SN12C > 100 µM | SNB-19 > 100 µM | SNB-75 84.3 µM | SNB-78 > 100 µM | SR > 100 µM | SW-620 > 100 µM | TK-10 > 100 µM | U-251 > 100 µM | UACC-257 > 100 µM | UACC-62 > 100 µM | UO-31 > 100 µM | XF498 > 100 µM
> 100 µM: HCT-15
